Results reported in patent publication US10968214B2, “KRas G12C inhibitors” (Eli Lilly and Company, priority 2018, dated 2021).
Read-outs that look alike come from different tables or passages of the source.

Legend:
[1] = test system: H23; experiment: CellTiterGlo Cell Proliferation Assay, H23; format: cell-based; details: Homo sapiens, NCI-H23, KRas G12C, Lung, 96 hr
Description: (§1) A panel of tumor cell lines harboring KRas G12C or other KRas mutations are collected (Table 6). All cell lines are from ATCC or other sources indicated.
(§2) Typically cells are cultured in RPMI1640 or Dulbecco's modified Eagle's medium (DMEM, GIBCO) supplemented with 10% FBS (GIBCO, Invitrogen). For 2D culture cells (4×10^3/well) maintained in growth medium described above, are plated onto 96 well tissue culture plates Corning® Cat. 3603) a day before the treatment. For 3D culture 8000 cells/well are seeded onto 96 well ultra-low attachment tissue culture plates (Corning, #3474). The cells are treated compound for 96 hr, and then are analyzed for viability using the CellTiterGlo® Luminescent Cell Viability Assay® (Promega #G7572 for 2D and Promega #G9683 for 3D cultures) according to manufacturer's instructions and an EnVision™ plate reader. Nonlinear regression and sigmoidal dose-response curves are used to calculate the half maximal inhibitory concentration (IC50) with GraphPad Prism 4® software.

[2] = test system: H460; experiment: CellTiterGlo Cell Proliferation Assay, H460; format: cell-based; details: Homo sapiens, NCI-H460, KRas Q61H, lung, 96 hr
Description: as §1, §2

[3] = test system: pERK in H358 xenograft tumors; experiment: In vivo target inhibition/PD, H358 xenograft, pERK; design: species or system mouse; details: for inhibition at 10 mg/kg: 10 mg/kg single dose; for inhibition at 30 mg/kg: 30 mg/kg single dose
Description: (§3) To evaluate in vivo target inhibition and anti-tumor efficacy of a compound, Human lung cancer cells, H358 or H2122 are implanted into nude mice xenograft tumor models. Either H358 or H2122 cells (10×10^6 in a 1:1 Matrigel® mix, 0.2 mL total volume) are implanted by subcutaneous injection in hind leg of nude female mice (Harlan Laboratories). A total of 5 mice each group are used for efficacy study, and a total of 3-4 mice each group are used for target engagement and PD study. Treatment is initiated with oral administration (gavage) of a test compound or vehicle (20% Captisol®, 25 mM phosphate, pH 2.0 in 0.2 mL volume when the tumor size reaches approximately […]. Tumor growth and body weight are monitored over time to evaluate efficacy and signs of toxicity. Bidimensional measurements of tumors are performed twice a week and tumor volumes are calculated based on mid-axis length and mid-axis width. Tumor volume data are transformed to a log scale to equalize variance across time and treatment groups. The log volume data are analyzed with a two-way repeated measures analysis of variance by time and treatment using the mixed procedures in SAS software (version 8.2). The correlation model for the repeated measures is spatial power. Treated groups are compared to the control group at each time point. The mixed procedure is also used separately for each treatment group to calculate adjusted means and standard errors at each time point. Both analyses account for the autocorrelation within each animal. The adjusted means and standard errors are plotted for each treatment group versus time.
(§4) For in vivo target inhibition and PD analysis, tumors are ground by mortar and pestle on dry ice and tumor fragments are added to 800 μL of lysis buffer containing 1% Triton X100, 25 mM Tris pH 7.5, 150 mM NaCl, 1 mM EDTA, and 1 mM EGTA with Halt protease and phosphatase inhibitor cocktail (Thermo Scientific, cat. no. 1861281) in lysing matrix D tubes (MP Biomedical®, cat. no. 6913-500) with one additional large bead (MP Biomedical® ¼″ ceramic sphere bead cat. no. 6540-412) per tube. Tumor fragments are homogenized in a Thermo Bio101® fast prep (FP120) at setting 4 for […] while cold for a total of 2 times. Lysates are spun at 14,000 rpm for 10 min at 4° C. to clarify. Protein estimation is done on the lysate supernatant using a BioRad Dc® protein assay and lysates are diluted in complete lysis/binding buffer from the Ras GTPase Chemi ELISA Kit® (Active Motif, cat. no. 52097). The active KRas ELISA was performed as follows: Glutathione-coated ELISA wells were incubated with diluted RAF1-GST in complete lysis/binding buffer for 1 hr at 4° C. with gentle agitation. Wells are washed 3 times with wash buffer and 100 μg of lysates are added to each well and incubated at RT for 1 hr with mild agitation. The wells are washed an additional 3 times, then primary antibody, diluted in antibody binding buffer, is added to each well. The plates are incubated for 1 hr. The wells are washed 3 more times before adding HRP-conjugated secondary antibody, diluted in antibody binding buffer, to each well. The plates are incubated at RT for 1 hr. ELISA wells are washed 4 times, chemiluminescent reagents is added and then luminescence is read. For pERK Meso Scale Discovery ELISA, 25 μg of protein containing 0.1% SDS is used; for pMEK Meso Scale Discovery ELISA, 50 μg of protein without SDS is used. Meso Scale Discovery Whole Cell Lysate Kits for pERK and pMEK are provided by Meso Scale Discovery.
(§5) The tumor samples are collected 4 hr post a single dose. The tumor lysates are prepared and the inhibition of pERK, pMEK, and active KRas is measured as described above.
(§6) After a single dose, the tumor samples are harvested at 2, 4, 8, 12 and 24 hr post doing. The tumor lysates are prepared and the inhibition of pERK, pMEK, and active KRas is measured as described above.

[4] = biological target: T1, active KRas in H358 xenograft tumors (Homo sapiens, UniProt P01116, G12C); experiment: In vivo target inhibition/PD, H358 xenograft, active KRas; design: species or system mouse; details: for inhibition at 10 mg/kg: 10 mg/kg single dose; for inhibition at 30 mg/kg: 30 mg/kg single dose
T1 construct: from tissue; host or cells: H358 xenograft tumours from nude mice
Description: as §3, §4, §5, §6

[5] = read-out: IC50 (μM) in 2 D cell proliferation
[6] = read-out: IC50 (μM) in 3 D spheroid cell proliferation
[7] = Mus musculus, NCI-H358, 2 h, H358 xenograft, time course, 2 hr, read-out: % Inhibition pERK
[8] = Mus musculus, NCI-H358, 4 h, H358 xenograft, time course, 4 hr, read-out: % Inhibition pERK
[9] = Mus musculus, NCI-H358, 4 h, H358 xenograft, 4 hr post dose, read-out: % Inhibition pERK
[10] = Mus musculus, NCI-H358, 8 h, H358 xenograft, time course, 8 hr, read-out: % Inhibition pERK
[11] = Mus musculus, NCI-H358, 12 h, H358 xenograft, time course, 12 hr, read-out: % Inhibition pERK
[12] = Mus musculus, NCI-H358, 24 h, H358 xenograft, time course, 24 hr, read-out: % Inhibition pERK
[13] = NCI-H358, mouse, 4 hr post dose, read-out: % Inhibition Active KRas
[14] = NCI-H358, mouse, time course, 2 hr, read-out: % Inhibition Active KRas
[15] = NCI-H358, mouse, time course, 4 hr, read-out: % Inhibition Active KRas
[16] = NCI-H358, mouse, time course, 8 hr, read-out: % Inhibition Active KRas
[17] = NCI-H358, mouse, time course, 12 hr, read-out: % Inhibition Active KRas
[18] = NCI-H358, mouse, time course, 24 hr, read-out: % Inhibition Active KRas

T1 sequence (P01116 1-188 isoform P01116-2 G12C): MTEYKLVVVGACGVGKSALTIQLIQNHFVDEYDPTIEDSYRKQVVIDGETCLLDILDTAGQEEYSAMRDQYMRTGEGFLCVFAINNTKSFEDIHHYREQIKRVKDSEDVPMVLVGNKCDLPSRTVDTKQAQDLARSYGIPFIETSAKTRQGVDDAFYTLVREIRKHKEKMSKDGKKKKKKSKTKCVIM

Work on `C=CC(=O)N1CCN(c2ncnc3c(F)c(-c4ccc(F)c5sc(N)nc45)c(Cl)cc23)CC1` [Example 1, 1-{4-[7-(2-Amino-7-fluoro-1,3-benzothiazol-4-yl)-6-chloro-8-fluoroquinazolin-4-yl]piperazin-1-yl}prop-2-en-1-one] yielded an IC50 [1, 5] of 0.08 µM, an IC50 [1, 6] of 0.031 µM and an IC50 [2, 5] of 11.6 µM. The IC50 [2, 6] was 6.07 µM, the “dose to achieve 50% target inhibition (TED50), pERK” value ([3]; H358 xenograft, single dose, 4 hr) was 9.78 mg/kg and the inhibition at 10 mg/kg [3, 7] was 61.7%. For the same compound, the inhibition at 30 mg/kg [3, 7] was 83.1%, the inhibition at 10 mg/kg [3, 8] was 73.5% and the inhibition at 30 mg/kg [3, 8] was 87.3%. The inhibition at 1 mg/kg ([3]; Mus musculus, NCI-H358, 4 h, H358 xenograft, 1 mg/kg single dose, 4 hr post dose) was 5.5%, the inhibition at 3 mg/kg ([3]; Mus musculus, NCI-H358, 4 h, H358 xenograft, 3 mg/kg single dose, 4 hr post dose) was 16.4% and the inhibition at 10 mg/kg [3, 9] was 47.8%. It also gave an inhibition at 30 mg/kg [3, 9] of 84.2%, an inhibition at 100 mg/kg ([3]; Mus musculus, NCI-H358, 4 h, H358 xenograft, 100 mg/kg single dose, 4 hr post dose) of 83.5% and an inhibition at 10 mg/kg [3, 10] of 69.2%. For the same compound, the inhibition at 30 mg/kg [3, 10] was 86.5%, the inhibition at 10 mg/kg [3, 11] was 83% and the inhibition at 30 mg/kg [3, 11] was 77.4%. For the same compound, the inhibition at 10 mg/kg [3, 12] was 45%, the inhibition at 30 mg/kg [3, 12] was 63.4% and the inhibition at 10 mg/kg ([3]; Mus musculus, NCI-H358, H358 xenograft, from 2-12 hr, read-out: pERK inhibition) was 61 to 83%. For the same compound, the inhibition at 30 mg/kg ([3]; Mus musculus, NCI-H358, H358 xenograft, from 2-24 hr, read-out: pERK inhibition) was 63 to 87%, the EC50 ([3]; Mus musculus, NCI-H358, H358 xenograft, plasma exposure by mass spectrum, read-out: plasma concentration to achieve 50% target inhibition (TEC50), pERK) was 474 nM and the inhibition at 1 mg/kg ([4]; NCI-H358, mouse, 1 mg/kg single dose, 4 hr post dose) was -1.9%. For the same compound, the inhibition at 3 mg/kg ([4]; NCI-H358, mouse, 3 mg/kg single dose, 4 hr post dose) was -2.9%, the inhibition at 10 mg/kg [4, 13] was 40.9% and the inhibition at 10 mg/kg ([4]; NCI-H358, mouse, from 2-24 hr, read-out: active Kras inhibition) was 21 to 61%. The inhibition at 30 mg/kg [4, 13] was 83.2%, the inhibition at 30 mg/kg ([4]; NCI-H358, mouse, from 2-24 hr, read-out: active KRas inhibition) was 29 to 70% and the inhibition at 100 mg/kg ([4]; NCI-H358, mouse, 100 mg/kg single dose, 4 hr post dose) was 87.4%. For the same compound, the inhibition at 10 mg/kg [4, 14] was 26.1%, the inhibition at 10 mg/kg [4, 15] was 32.9% and the inhibition at 10 mg/kg [4, 16] was 30%. The inhibition at 10 mg/kg [4, 17] was 61.1%, the inhibition at 10 mg/kg [4, 18] was 21.5% and the inhibition at 30 mg/kg [4, 14] was 70.4%. For the same compound, the inhibition at 30 mg/kg [4, 15] was 65%, the inhibition at 30 mg/kg [4, 16] was 66.5% and the inhibition at 30 mg/kg [4, 17] was 28.7%. For the same compound, the inhibition at 30 mg/kg [4, 18] was 37.7%, the EC50 ([4]; plasma exposure by mass spectrum, read-out: plasma concentration to achieve 50% target inhibition (TEC50), active KRas) was 574 nM and the “dose to achieve 50% target inhibition (TED50), active KRas” value ([4]; single dose, 4 hr) was 11.2 mg/kg.
